# Assay results as given in patent US7259140B2, “Heparin-binding peptides and uses thereof” (Thomas Jefferson University, priority 2003, dated 2007).
# Assays:
# [1] = system: anti-Factor Xa Activity of Unfractionated Heparin; experiment: Anti-Factor Xa assay: neutralization of unfractionated heparin in citrate or plasma in vitro; assay type: biochemical, human; conditions: for Unfractionated Heparin Neutralized: UFH 0.7 U/ml
# Experimental: (§1) The ability of peptides such as (ARKKAAKA)3VLVLVLVL (SEQ ID NO:5) to neutralize the anti-Factor Xa activity of UFH and LMWH in vitro was tested using the Stachrom Heparin kit (Diagnostica Stago), a standard hematology laboratory assay used to measure the anti-Factor Xa activity of heparin. The assay was performed using the low molecular weight heparin enoxaparin sodium (Lovenox®, Aventis Pharmaceuticals, Inc.), unfractionated heparin (UFH), or the non-heparin glycosaminoglycan danaparoid sodium (Orgaran®, Organon Inc., West Orange, N.J.) in 0.32% citrate or in plasma anticoagulated with 0.32% citrate. Enoxaparin is commonly used clinically as a low molecular weight heparin (LMWH). Danaparoid is commonly used clinically as a non-heparin glycosaminoglycan anticoagulant. Currently, the only FDA approved drug to target UFH is protamine, which is not effective in vivo against LMWH or a non-heparin glycosaminoglycan such as danaparoid. Buffer and ATIII are added to form the heparin/ATIII complex, peptide is added, then Factor Xa, reporter dye substrate for Factor Xa activity, and stop solution, and the dye concentration is read at 405 nm. The absorbance of the dye increases with increasing Factor Xa activity, and thus is inversely proportional to the heparin (anti-Factor Xa activity) concentration. Peptides were tested in plasma obtained from three volunteers (A, B, and C). Platelet function inhibitors PG12 and theophylline were added to the blood immediately upon collection. […]
# [2] = Hemodynamic effects in rats without prior Lovenox; conditions: no Lovenox
# [3] = system: Anti-Factor Xa Activity of the Non-Heparin Glycosaminoglycan Orgaran ®; experiment: Anti-Factor Xa assay: neutralization of Orgaran in citrate or plasma in vitro; assay type: biochemical, human
# Experimental: as §1
# [4] = Hemodynamic effects in rats after administration of the LMWH Lovenox; conditions: in the presence of LMWH Lovenox
# Experimental: Next, experiments were performed in which the animals were treated with the peptides after the administration of the LMWH Lovenox®, as would happen in the clinical situation, because binding of peptides to LMWH would be expected to reduce the effects of the peptides on hemodynamic function.
substance,measurement,setting,value
ARKKAAKAARKKAAKAARKKAAKAVLVLVL [(ARKKAAKA)3VLVLVL],Unfractionated Heparin Neutralized,"[1]; 1 μg/ml Peptide, A Plasma",0.249 ± 0.129 U/ml
same,Unfractionated Heparin Neutralized,"[1]; 1 μg/ml Peptide, B Plasma",0.142 ± 0.040 U/ml
same,Unfractionated Heparin Neutralized,"[1]; 1 μg/ml Peptide, C Plasma",0.114 ± 0.056 U/ml
same,Unfractionated Heparin Neutralized,"[1]; 1 μg/ml Peptide, Citrate",0.150 ± 0.023 U/ml
same,Unfractionated Heparin Neutralized,"[1]; 6 μg/ml Peptide, A Plasma",0.667 ± 0.019 U/ml
same,Unfractionated Heparin Neutralized,"[1]; 6 μg/ml Peptide, B Plasma",0.598 ± 0.016 U/ml
same,Unfractionated Heparin Neutralized,"[1]; 6 μg/ml Peptide, C Plasma",0.572 ± 0.018 U/ml
same,Unfractionated Heparin Neutralized,"[1]; 6 μg/ml Peptide, Citrate",0.576 ± 0.060 U/ml
same,Unfractionated Heparin Neutralized,"[1]; 12 μg/ml Peptide, A Plasma",0.570 ± 0.119 U/ml
same,Unfractionated Heparin Neutralized,"[1]; 12 μg/ml Peptide, B Plasma",0.585 ± 0.005 U/ml
same,Unfractionated Heparin Neutralized,"[1]; 12 μg/ml Peptide, C Plasma",0.575 ± 0.013 U/ml
same,Unfractionated Heparin Neutralized,"[1]; 12 μg/ml Peptide, Citrate",0.595 ± 0.021 U/ml
Protamine [reference compound],reduction/drop of blood pressure,[2]; 2 mg per rat (300-350 grams),25-35 mm Hg
same,onset of blood pressure reduction,[2]; 2 mg per rat,within less than a minute
same,time to nadir of blood pressure,[2]; 2 mg per rat,about 4.5 minutes
same,time to recovery/reversal of blood pressure,[2]; 2 mg per rat,10 to 12 min
same,Unfractionated Heparin Neutralized,"[1]; 1 μg/ml Peptide, A Plasma",0.241 ± 0.026 U/ml
same,Unfractionated Heparin Neutralized,"[1]; 1 μg/ml Peptide, B Plasma",0.268 ± 0.028 U/ml
same,Unfractionated Heparin Neutralized,"[1]; 1 μg/ml Peptide, C Plasma",0.161 ± 0.030 U/ml
same,Unfractionated Heparin Neutralized,"[1]; 1 μg/ml Peptide, Citrate",0.126 ± 0.042 U/ml
same,anti-Factor Xa activity of UFH neutralized,[1]; 6 μg/ml,about 0.4 U/ml
same,Unfractionated Heparin Neutralized,"[1]; 6 μg/ml Peptide, A Plasma",0.442 ± 0.012 U/ml
same,Unfractionated Heparin Neutralized,"[1]; 6 μg/ml Peptide, B Plasma",0.423 ± 0.035 U/ml
same,Unfractionated Heparin Neutralized,"[1]; 6 μg/ml Peptide, C Plasma",0.425 ± 0.012 U/ml
same,Unfractionated Heparin Neutralized,"[1]; 6 μg/ml Peptide, Citrate",0.475 ± 0.017 U/ml
same,Unfractionated Heparin Neutralized,"[1]; 12 μg/ml Peptide, A Plasma",0.466 ± 0.023 U/ml
same,Unfractionated Heparin Neutralized,"[1]; 12 μg/ml Peptide, B Plasma",0.448 ± 0.041 U/ml
same,Unfractionated Heparin Neutralized,"[1]; 12 μg/ml Peptide, C Plasma",0.405 ± 0.035 U/ml
same,Unfractionated Heparin Neutralized,"[1]; 12 μg/ml Peptide, Citrate",0.429 ± 0.010 U/ml
same,Unfractionated Heparin Neutralized,"[1]; 60 μg/ml Peptide, A Plasma",0.380 ± 0.037 U/ml
same,Unfractionated Heparin Neutralized,"[1]; 60 μg/ml Peptide, B Plasma",0.387 ± 0.047 U/ml
same,Unfractionated Heparin Neutralized,"[1]; 60 μg/ml Peptide, C Plasma",0.350 ± 0.019 U/ml
same,Unfractionated Heparin Neutralized,"[1]; 60 μg/ml Peptide, Citrate",0.406 ± 0.023 U/ml
same,Unfractionated Heparin Neutralized,"[1]; 120 μg/ml Peptide, A Plasma",0.372 ± 0.024 U/ml
same,Unfractionated Heparin Neutralized,"[1]; 120 μg/ml Peptide, B Plasma",0.374 ± 0.034 U/ml
same,Unfractionated Heparin Neutralized,"[1]; 120 μg/ml Peptide, C Plasma",0.310 ± 0.024 U/ml
same,Unfractionated Heparin Neutralized,"[1]; 120 μg/ml Peptide, Citrate",0.374 ± 0.030 U/ml
same,Orgaran Neutralized,"[3]; 1 μg/ml Peptide, A Plasma",0.027 ± 0.004 U/ml
same,Orgaran Neutralized,"[3]; 1 μg/ml Peptide, B Plasma",0.021 ± 0.007 U/ml
same,Orgaran Neutralized,"[3]; 1 μg/ml Peptide, C Plasma",0.017 ± 0.006 U/ml
same,Orgaran Neutralized,"[3]; 1 μg/ml Peptide, Citrate",0.030 ± 0.015 U/ml
same,Orgaran Neutralized,"[3]; 6 μg/ml Peptide, A Plasma",0.050 ± 0.025 U/ml
same,Orgaran Neutralized,"[3]; 6 μg/ml Peptide, B Plasma",0.040 ± 0.018 U/ml
same,Orgaran Neutralized,"[3]; 6 μg/ml Peptide, C Plasma",0.034 ± 0.021 U/ml
same,Orgaran Neutralized,"[3]; 6 μg/ml Peptide, Citrate",0.093 ± 0.046 U/ml
same,Orgaran Neutralized,"[3]; 12 μg/ml Peptide, A Plasma",0.016 ± 0.013 U/ml
same,Orgaran Neutralized,"[3]; 12 μg/ml Peptide, B Plasma",0.065 ± 0.014 U/ml
same,Orgaran Neutralized,"[3]; 12 μg/ml Peptide, C Plasma",0.043 ± 0.018 U/ml
same,Orgaran Neutralized,"[3]; 12 μg/ml Peptide, Citrate",0.308 ± 0.017 U/ml
same,Orgaran Neutralized,"[3]; 60 μg/ml Peptide, A Plasma",0.140 ± 0.021 U/ml
same,Orgaran Neutralized,"[3]; 60 μg/ml Peptide, B Plasma",0.241 ± 0.032 U/ml
same,Orgaran Neutralized,"[3]; 60 μg/ml Peptide, C Plasma",0.234 ± 0.025 U/ml
same,Orgaran Neutralized,"[3]; 60 μg/ml Peptide, Citrate",0.322 ± 0.038 U/ml
same,Orgaran Neutralized,"[3]; 120 μg/ml Peptide, A Plasma",0.340 ± 0.021 U/ml
same,Orgaran Neutralized,"[3]; 120 μg/ml Peptide, B Plasma",0.364 ± 0.013 U/ml
same,Orgaran Neutralized,"[3]; 120 μg/ml Peptide, C Plasma",0.318 ± 0.019 U/ml
same,Orgaran Neutralized,"[3]; 120 μg/ml Peptide, Citrate",0.136 ± 0.034 U/ml
same,blood pressure drop,[4],≥ 30 mm Hg
same,duration of blood pressure drop,[4],10 min
same,heart rate nadir,[4],about 80 % of normal
same,rats with blood pressure drop out of rats tested,[4],10 out of 15
VLVL(ARKKAAKA)3ARKKCAKA (VLVLARKKAAKAARKKAAKAARKKAAKAARKKCAKA; Fragment),Unfractionated Heparin Neutralized,"[1]; 1 μg/ml Peptide, A Plasma",0.240 ± 0.061 U/ml
same,Unfractionated Heparin Neutralized,"[1]; 1 μg/ml Peptide, B Plasma",0.259 ± 0.063 U/ml
same,Unfractionated Heparin Neutralized,"[1]; 1 μg/ml Peptide, C Plasma",0.233 ± 0.075 U/ml
same,Unfractionated Heparin Neutralized,"[1]; 1 μg/ml Peptide, Citrate",0.262 ± 0.101 U/ml
same,Unfractionated Heparin Neutralized,"[1]; 6 μg/ml Peptide, A Plasma",0.574 ± 0.014 U/ml
same,Unfractionated Heparin Neutralized,"[1]; 6 μg/ml Peptide, B Plasma",0.550 ± 0.061 U/ml
same,Unfractionated Heparin Neutralized,"[1]; 6 μg/ml Peptide, C Plasma",0.559 ± 0.014 U/ml
same,Unfractionated Heparin Neutralized,"[1]; 6 μg/ml Peptide, Citrate",0.597 ± 0.034 U/ml
same,Unfractionated Heparin Neutralized,"[1]; 12 μg/ml Peptide, A Plasma",0.618 ± 0.014 U/ml
same,Unfractionated Heparin Neutralized,"[1]; 12 μg/ml Peptide, B Plasma",0.586 ± 0.001 U/ml
same,Unfractionated Heparin Neutralized,"[1]; 12 μg/ml Peptide, C Plasma",0.526 ± 0.031 U/ml
same,Unfractionated Heparin Neutralized,"[1]; 12 μg/ml Peptide, Citrate",0.534 ± 0.056 U/ml
